These results are taken from ChEMBL document CHEMBL4715706, “Discovery of Benzotriazolo[4,3-d][1,4]diazepines as Orally Active Inhibitors of BET Bromodomains” (ACS Med Chem Lett, 2016).

Molecules are shown by their SMILES. pEC50, pIC50: −log10 of the molar value.

Data set [1] is described as follows: Inhibition of BET in human THP-1 cells assessed as suppression of LPS-induced IL-6 release measured after 16 hrs by chemiluminescence ELISA. The format is cell-based. The conditions noted are these: THP-1, 16 h. A general note: An ELISA detects its analyte on a solid surface through an enzyme-linked reagent.
The target in data set [2] is Bromodomain-containing protein 3 (Homo sapiens, UniProt Q15059). As to the kind of experiment: Inhibition of BRD3 BD2 (unknown origin) using biotinylated JQ1 analog as substrate measured after 20 mins by AlphaLISA assay.
Data set [3] addresses T1, Bromodomain and PHD finger-containing protein 3 (Homo sapiens, UniProt Q9ULD4).
T1 sequence (Q9ULD4 whole entry): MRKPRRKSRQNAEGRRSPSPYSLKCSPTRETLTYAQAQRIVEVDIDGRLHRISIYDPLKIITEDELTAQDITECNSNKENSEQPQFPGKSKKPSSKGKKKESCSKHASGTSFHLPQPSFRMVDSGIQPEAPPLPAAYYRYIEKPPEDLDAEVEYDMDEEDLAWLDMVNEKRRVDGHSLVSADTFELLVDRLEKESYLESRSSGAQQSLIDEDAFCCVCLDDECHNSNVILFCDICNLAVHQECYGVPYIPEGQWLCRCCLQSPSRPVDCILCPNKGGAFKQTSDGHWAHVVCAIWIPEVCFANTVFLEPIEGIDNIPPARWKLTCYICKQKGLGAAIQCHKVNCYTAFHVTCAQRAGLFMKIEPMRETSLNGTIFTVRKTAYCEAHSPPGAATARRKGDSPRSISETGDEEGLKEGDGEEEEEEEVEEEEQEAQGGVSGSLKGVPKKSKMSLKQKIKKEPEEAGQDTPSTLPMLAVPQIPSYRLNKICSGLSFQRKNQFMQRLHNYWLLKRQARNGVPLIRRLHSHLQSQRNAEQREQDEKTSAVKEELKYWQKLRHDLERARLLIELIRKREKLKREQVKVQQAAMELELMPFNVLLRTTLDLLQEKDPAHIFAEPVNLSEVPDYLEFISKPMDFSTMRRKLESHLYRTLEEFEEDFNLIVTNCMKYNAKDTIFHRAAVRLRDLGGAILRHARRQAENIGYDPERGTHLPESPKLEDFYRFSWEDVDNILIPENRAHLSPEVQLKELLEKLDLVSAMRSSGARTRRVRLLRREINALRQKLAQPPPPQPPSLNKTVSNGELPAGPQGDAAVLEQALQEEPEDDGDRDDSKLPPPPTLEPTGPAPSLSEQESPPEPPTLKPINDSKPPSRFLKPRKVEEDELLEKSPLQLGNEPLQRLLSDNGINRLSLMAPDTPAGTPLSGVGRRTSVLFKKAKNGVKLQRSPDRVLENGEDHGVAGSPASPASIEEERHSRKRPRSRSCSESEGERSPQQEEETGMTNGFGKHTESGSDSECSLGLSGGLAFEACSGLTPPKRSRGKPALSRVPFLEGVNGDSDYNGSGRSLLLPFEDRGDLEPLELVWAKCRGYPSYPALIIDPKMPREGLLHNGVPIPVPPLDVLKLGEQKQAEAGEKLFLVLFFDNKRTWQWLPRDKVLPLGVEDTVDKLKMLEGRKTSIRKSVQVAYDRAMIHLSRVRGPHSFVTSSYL
As to the kind of experiment: Inhibition of BRPF3 (unknown origin) measured after 70 mins by TR-FRET assay. (In general: TR-FRET usually uses a lanthanide donor and a delayed reading to cut background.)

The nature of data set [4]: Intrinsic clearance in rat liver microsomes. For orientation: Microsomes from liver hold many membrane-bound enzymes, among them those of drug oxidation.
Data set [5] is described as follows: Half life in rat at 10 mg/kg, po. The format is ADME, organism-based. The conditions noted are these: in vivo.
In data set [6] the target is Bromodomain testis-specific protein (Homo sapiens, UniProt Q58F21). As to the kind of experiment: Inhibition of BRDT BD2 (unknown origin) using biotinylated JQ1 analog as substrate measured after 20 mins by AlphaLISA assay.
Data set [7] concerns the target Bromodomain-containing protein 2 (Homo sapiens, UniProt P25440). As to the kind of experiment: Inhibition of BRD2 BD1 (unknown origin) using biotinylated JQ1 analog as substrate measured after 20 mins by AlphaLISA assay.
Data set [8] is described as follows: AUClast in rat at 10 mg/kg, po. The format is ADME, organism-based. Details: time 0 - last, route oral, dose 10 mg/kg. The conditions noted are these: in vivo.
The target in data set [9] is T2, ATPase family AAA domain-containing protein 2 (Homo sapiens, UniProt Q6PL18).
T2 sequence (Q6PL18 whole entry): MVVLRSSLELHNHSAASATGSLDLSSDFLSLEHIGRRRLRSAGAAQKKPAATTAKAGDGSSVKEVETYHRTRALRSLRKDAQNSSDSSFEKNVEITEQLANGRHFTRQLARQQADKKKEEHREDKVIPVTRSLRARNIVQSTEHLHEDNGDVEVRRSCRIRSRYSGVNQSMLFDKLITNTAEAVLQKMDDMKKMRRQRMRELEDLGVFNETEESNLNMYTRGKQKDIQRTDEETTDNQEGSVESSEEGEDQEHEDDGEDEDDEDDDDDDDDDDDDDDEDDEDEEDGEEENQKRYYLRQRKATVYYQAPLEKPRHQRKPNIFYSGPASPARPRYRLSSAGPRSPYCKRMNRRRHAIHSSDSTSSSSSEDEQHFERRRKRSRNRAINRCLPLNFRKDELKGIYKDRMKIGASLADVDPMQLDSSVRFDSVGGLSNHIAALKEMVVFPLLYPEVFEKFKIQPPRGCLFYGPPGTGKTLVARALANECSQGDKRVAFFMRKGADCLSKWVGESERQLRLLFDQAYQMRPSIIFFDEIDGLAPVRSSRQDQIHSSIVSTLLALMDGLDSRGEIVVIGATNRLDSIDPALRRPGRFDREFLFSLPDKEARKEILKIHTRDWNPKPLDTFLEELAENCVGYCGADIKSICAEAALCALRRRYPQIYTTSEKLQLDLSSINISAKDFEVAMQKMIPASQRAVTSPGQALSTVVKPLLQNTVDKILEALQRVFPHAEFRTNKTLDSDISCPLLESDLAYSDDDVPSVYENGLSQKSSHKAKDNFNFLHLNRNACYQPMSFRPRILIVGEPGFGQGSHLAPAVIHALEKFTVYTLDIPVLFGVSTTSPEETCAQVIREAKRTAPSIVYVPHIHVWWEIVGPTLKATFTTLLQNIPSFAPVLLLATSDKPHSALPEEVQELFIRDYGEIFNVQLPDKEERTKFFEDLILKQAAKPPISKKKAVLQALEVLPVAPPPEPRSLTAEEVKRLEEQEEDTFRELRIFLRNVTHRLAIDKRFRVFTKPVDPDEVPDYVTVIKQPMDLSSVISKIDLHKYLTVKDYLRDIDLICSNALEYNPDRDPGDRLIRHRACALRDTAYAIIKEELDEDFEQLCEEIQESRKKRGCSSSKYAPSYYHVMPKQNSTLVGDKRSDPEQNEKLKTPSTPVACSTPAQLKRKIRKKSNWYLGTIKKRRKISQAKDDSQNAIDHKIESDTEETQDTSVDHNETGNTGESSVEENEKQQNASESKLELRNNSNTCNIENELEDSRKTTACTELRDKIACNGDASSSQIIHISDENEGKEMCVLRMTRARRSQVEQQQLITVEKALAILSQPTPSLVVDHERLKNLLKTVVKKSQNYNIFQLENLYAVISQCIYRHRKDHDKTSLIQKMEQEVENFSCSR
As to the kind of experiment: Inhibition of His-tagged ATAD2 (unknown origin) using biotinylated acetylated peptide as substrate measured after 20 mins by AlphaLISA assay.

Data set [10] can be described thus: Unbound clearance in rat at 1 mg/kg, iv. Particulars: in vivo. The format is ADME, organism-based.

Sequence of Bromodomain-containing protein 3 (Q15059 whole entry): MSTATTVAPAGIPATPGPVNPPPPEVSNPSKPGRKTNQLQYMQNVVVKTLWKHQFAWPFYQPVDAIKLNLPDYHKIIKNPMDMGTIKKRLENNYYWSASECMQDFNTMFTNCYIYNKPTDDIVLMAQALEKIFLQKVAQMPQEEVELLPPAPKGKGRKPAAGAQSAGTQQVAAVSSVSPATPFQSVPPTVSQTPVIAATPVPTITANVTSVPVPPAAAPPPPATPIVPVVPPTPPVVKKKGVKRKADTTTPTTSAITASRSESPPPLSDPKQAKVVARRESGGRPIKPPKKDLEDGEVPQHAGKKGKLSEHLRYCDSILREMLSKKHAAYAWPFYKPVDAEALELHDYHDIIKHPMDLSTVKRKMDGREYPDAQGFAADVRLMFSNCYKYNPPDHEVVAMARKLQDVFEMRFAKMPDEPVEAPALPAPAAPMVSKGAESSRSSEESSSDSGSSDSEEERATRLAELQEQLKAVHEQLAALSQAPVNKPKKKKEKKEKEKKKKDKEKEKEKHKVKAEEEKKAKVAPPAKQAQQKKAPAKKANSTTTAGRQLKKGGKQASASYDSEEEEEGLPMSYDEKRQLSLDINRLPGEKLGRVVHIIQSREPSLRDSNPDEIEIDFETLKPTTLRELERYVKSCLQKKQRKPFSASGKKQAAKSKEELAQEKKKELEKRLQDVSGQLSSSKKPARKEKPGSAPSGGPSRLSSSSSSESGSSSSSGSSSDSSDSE
Sequence of Bromodomain-containing protein 2 (P25440 whole entry): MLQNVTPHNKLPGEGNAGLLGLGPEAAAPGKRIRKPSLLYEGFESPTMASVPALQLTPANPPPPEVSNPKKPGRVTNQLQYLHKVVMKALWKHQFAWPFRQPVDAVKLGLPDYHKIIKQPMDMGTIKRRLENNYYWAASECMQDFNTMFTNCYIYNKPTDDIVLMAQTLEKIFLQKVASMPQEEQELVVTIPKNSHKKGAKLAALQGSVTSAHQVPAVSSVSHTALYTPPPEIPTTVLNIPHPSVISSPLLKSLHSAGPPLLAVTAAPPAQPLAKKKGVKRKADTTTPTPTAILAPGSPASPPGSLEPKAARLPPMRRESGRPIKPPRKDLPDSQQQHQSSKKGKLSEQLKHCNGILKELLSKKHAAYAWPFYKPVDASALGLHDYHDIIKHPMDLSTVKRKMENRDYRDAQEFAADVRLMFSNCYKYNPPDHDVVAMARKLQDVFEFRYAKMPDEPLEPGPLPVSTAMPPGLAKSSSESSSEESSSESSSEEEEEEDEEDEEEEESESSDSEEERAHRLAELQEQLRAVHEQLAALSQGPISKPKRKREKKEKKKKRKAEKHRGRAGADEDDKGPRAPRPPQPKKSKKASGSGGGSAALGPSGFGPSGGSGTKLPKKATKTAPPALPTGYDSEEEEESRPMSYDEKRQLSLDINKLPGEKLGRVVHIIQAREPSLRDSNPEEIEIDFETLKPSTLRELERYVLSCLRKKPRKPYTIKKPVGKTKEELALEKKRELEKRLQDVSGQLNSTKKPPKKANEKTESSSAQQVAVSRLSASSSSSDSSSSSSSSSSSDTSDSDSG

For orientation: pEC50 means −log10 of the EC50, conventionally taken in molar units. Broadly, the pIC50 is the IC50 on a negative log10 scale, so that one unit is a factor of ten. One may read the microsomal CLint as the rate of metabolic loss divided by the concentration. High values mean faster metabolism, low ones greater metabolic stability. What is called half-life is the time needed for the level to fall by half in the phase considered. Usually AUC(0-t) stands for the area under the concentration-time curve up to a stated or last time point. The low end stands for less exposure, the high end for more exposure. For `Cc1nnc2n1-c1ccc(-c3ccc(N)nc3)cc1N(c1ccc(Cl)cc1)C[C@H]2C`, in data set [1], the pEC50 was 7.89. The pIC50 in data set [2] was 8.52; in data set [3] it was less than 4.82; in data set [6], 8.52; in data set [7], 8.52; in data set [9], less than 4.82. In data set [4], this molecule displayed a microsomal CLint of 26 µL/min/mg. The molecule further gave a half-life in data set [5] of 1.8 h. The molecule also gave an AUC(0-t) in [8] of 1.4 µM·h. The molecule further came in with a CL free in data set [10] of 1580 mL/min/kg.
